Assay results taken from PubChem BioAssay AID256 (DTP/NCI, 2004).
Several values for one entry are separate records, joined by “and”; a condition that tells them apart may be missing. Identical values can stand only once. Inconclusive results and toxic doses are left out. Rule for the calls: active = survival T/C of 150% or more; inactive = T/C below 125% in these data.

Test system: CD2F1 mice, L1210 leukemia ip, survival T/C
Assay: NCI In Vivo Anticancer Drug Screen. Data for tumor model L1210 Leukemia (intraperitoneal) in CD2F1 (CDF1) mice
Settings: higher = longer survival
Method in brief: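 Vehicle-treated tumor-bearing mice served as controls (C) for compound-treated mice (T). Reported figure is T divided by C.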

[1] = endpoint: mean survival time, dose: 100.0 mg/kg/injection, schedule: Q04DX003 (ip), vehicle: saline
[2] = endpoint: mean survival time, dose: 200.0 mg/kg/injection, schedule: Q04DX003 (ip), vehicle: saline
[3] = endpoint: mean survival time, dose: 100.0 mg/kg/injection, schedule: Q04DX003 (ip), vehicle: saline with Tween-80
[4] = endpoint: mean survival time, dose: 200.0 mg/kg/injection, schedule: Q04DX003 (ip), vehicle: saline with Tween-80
[5] = endpoint: mean survival time, dose: 400.0 mg/kg/injection, schedule: Q04DX003 (ip), vehicle: saline
[6] = endpoint: mean survival time, dose: 6.25 mg/kg/injection, schedule: Q01DX009 (ip), vehicle: saline with Tween-80
[7] = endpoint: mean survival time, dose: 12.5 mg/kg/injection, schedule: Q01DX009 (ip), vehicle: saline with Tween-80
[8] = endpoint: mean survival time, dose: 100.0 mg/kg/injection, schedule: Q01DX001 (ip), vehicle: saline with Tween-80
[9] = endpoint: mean survival time, dose: 200.0 mg/kg/injection, schedule: Q01DX001 (ip), vehicle: saline with Tween-80
[10] = endpoint: mean survival time, dose: 400.0 mg/kg/injection, schedule: Q01DX001 (ip), vehicle: saline with Tween-80

Measured: T/C

CN(C)CCCNC(CC#N)CCC#N (centres undefined)
inactive: [1] 96 % of control | [2] 95 % of control

CN(C)C1(Cc2ccccc2)c2ccccc2-c2ccc(Br)cc21 (centres undefined)
inactive: [3] 89 % of control | [4] 87 % of control

CN(C)c1ccc(-c2nnc(-c3ccc(N(C)C)cc3)nn2)cc1
inactive: [3] 93 % of control | [4] 92 % of control | endpoint: mean survival time, dose: 400.0 mg/kg/injection, schedule: Q04DX003 (ip), vehicle: saline with Tween-80 95 % of control

CC/C=C(\C)CC(C)O (centres undefined)
inactive: endpoint: mean survival time, dose: 25.0 mg/kg/injection, schedule: Q04DX002 (ip), vehicle: saline with Tween-80 93 % of control | endpoint: mean survival time, dose: 50.0 mg/kg/injection, schedule: Q04DX002 (ip), vehicle: saline with Tween-80 89 % of control | endpoint: mean survival time, dose: 100.0 mg/kg/injection, schedule: Q04DX002 (ip), vehicle: saline with Tween-80 89 % of control

CC(=O)NC(C)(NC(C)=O)C(=O)O
inactive: endpoint: mean survival time, dose: 50.0 mg/kg/injection, schedule: Q01DX009 (ip), vehicle: Klucel (hydroxypropylcellulose) (HPC) 95 % of control | endpoint: mean survival time, dose: 100.0 mg/kg/injection, schedule: Q01DX009 (ip), vehicle: Klucel (hydroxypropylcellulose) (HPC) 98 % of control | endpoint: mean survival time, dose: 200.0 mg/kg/injection, schedule: Q01DX009 (ip), vehicle: Klucel (hydroxypropylcellulose) (HPC) 95 % of control

CC1=Cc2ccc(C)cc2C(=O)C1=O
inactive: endpoint: mean survival time, dose: 1.56 mg/kg/injection, schedule: Q04DX002 (ip), vehicle: saline with Tween-80 117 % of control | endpoint: mean survival time, dose: 3.13 mg/kg/injection, schedule: Q04DX002 (ip), vehicle: saline with Tween-80 106 % of control

CSc1cccnn1
inactive: [1] 93 % of control | [2] 98 % of control | [5] 95 % of control

CS(=O)(=O)OCCN(CCOS(C)(=O)=O)c1ccc(C=O)cc1
inactive: endpoint: mean survival time, dose: 3.12 mg/kg/injection, schedule: Q01DX009 (ip), vehicle: saline with Tween-80 113 % of control and 115 % of control | [6] 115 % of control and 112 % of control | [7] 117 % of control | endpoint: mean survival time, dose: 12.5 mg/kg/injection, schedule: Q01DX009 (ip), vehicle: saline 96 % of control | endpoint: mean survival time, dose: 25.0 mg/kg/injection, schedule: Q01DX009 (ip), vehicle: saline with Tween-80 112 % of control | endpoint: mean survival time, dose: 25.0 mg/kg/injection, schedule: Q01DX009 (ip), vehicle: saline 102 % of control | endpoint: mean survival time, dose: 50.0 mg/kg/injection, schedule: Q01DX009 (ip), vehicle: saline with Tween-80 95 % of control

CCCCCCCCCCCCCCCCCCC(C)c1ccccc1 (centres undefined)
inactive: [8] 101 % of control | [9] 97 % of control | [10] 101 % of control

CC12CC=CCC1CCC/C2=N/O (centres undefined)
inactive: [8] 113 % of control | endpoint: mean survival time, dose: 100.0 mg/kg/injection, schedule: Q04DX003 (ip), vehicle: acetone 96 % of control | [9] 97 % of control | endpoint: mean survival time, dose: 200.0 mg/kg/injection, schedule: Q04DX003 (ip), vehicle: acetone 98 % of control | [10] 103 % of control | endpoint: mean survival time, dose: 400.0 mg/kg/injection, schedule: Q04DX003 (ip), vehicle: acetone 96 % of control

Cc1cc(NS(=O)(=O)c2ccc(N=Nc3cc(N=Nc4ccc(S(=O)(=O)Nc5cc(C)nc(C)n5)cc4)c4c(NC(=O)C(Cl)Cl)cccc4c3OC(=O)C(Cl)Cl)cc2)nc(C)n1 (tested in a mixture with another compound)
inactive: endpoint: median survival time, dose: 12.5 mg/kg/injection, schedule: Q01DX009 (ip), vehicle: suspension in saline 103 % of control | endpoint: median survival time, dose: 25.0 mg/kg/injection, schedule: Q01DX009 (ip), vehicle: suspension in saline 103 % of control | endpoint: median survival time, dose: 50.0 mg/kg/injection, schedule: Q01DX009 (ip), vehicle: suspension in saline 98 % of control | endpoint: median survival time, dose: 100.0 mg/kg/injection, schedule: Q01DX009 (ip), vehicle: suspension in saline 104 % of control | endpoint: median survival time, dose: 200.0 mg/kg/injection, schedule: Q01DX009 (ip), vehicle: suspension in saline 104 % of control

O=S(=O)(O)SCc1ccccc1CSS(=O)(=O)O
inactive: [1] 96 % of control | [2] 101 % of control | [5] 108 % of control

Oc1c(C(c2ccccc2)N2CCCCC2)ccc2ccccc12 (centres undefined)
inactive: endpoint: mean survival time, dose: 100.0 mg/kg/injection, schedule: Q01DX009 (ip), vehicle: saline with Tween-80 101 % of control | endpoint: mean survival time, dose: 200.0 mg/kg/injection, schedule: Q01DX009 (ip), vehicle: saline with Tween-80 97 % of control

CC1=NN(c2ccccc2)C(=O)/C1=C/N(C)C
inactive: endpoint: mean survival time, dose: 3.13 mg/kg/injection, schedule: Q01DX009 (ip), vehicle: saline with Tween-80 103 % of control | [6] 97 % of control | endpoint: mean survival time, dose: 6.25 mg/kg/injection, schedule: Q04DX003 (ip), vehicle: saline with Tween-80 95 % of control | [7] 100 % of control | endpoint: mean survival time, dose: 12.5 mg/kg/injection, schedule: Q04DX003 (ip), vehicle: saline with Tween-80 90 % of control
